For 1 compound, Ki results are on record in patent publication US7498327B2, “Indolylalkylamine metabolites as 5-hydroxytryptamine-6 ligands” (Wyeth, priority 2004, dated 2009).

By Ki is commonly meant the dissociation constant of the complex between target and ligand, obtained from inhibition or displacement. High values mean lower affinity, low ones higher affinity.

The test has as its target T1, human cloned 5-HT6 receptors (Homo sapiens, UniProt P50406).
T1 construct: expressed in transfected cells; host or cells: HeLa cells (membrane preparation)
The test can be described thus: 5-HT6 binding affinity, [3H]-LSD displacement. As to conditions: membranes of Hela cells expressing human cloned 5-HT6 receptors; [3H]-LSD 3.0 nM; 120 min, room temperature.

T1 sequence (P50406 whole entry): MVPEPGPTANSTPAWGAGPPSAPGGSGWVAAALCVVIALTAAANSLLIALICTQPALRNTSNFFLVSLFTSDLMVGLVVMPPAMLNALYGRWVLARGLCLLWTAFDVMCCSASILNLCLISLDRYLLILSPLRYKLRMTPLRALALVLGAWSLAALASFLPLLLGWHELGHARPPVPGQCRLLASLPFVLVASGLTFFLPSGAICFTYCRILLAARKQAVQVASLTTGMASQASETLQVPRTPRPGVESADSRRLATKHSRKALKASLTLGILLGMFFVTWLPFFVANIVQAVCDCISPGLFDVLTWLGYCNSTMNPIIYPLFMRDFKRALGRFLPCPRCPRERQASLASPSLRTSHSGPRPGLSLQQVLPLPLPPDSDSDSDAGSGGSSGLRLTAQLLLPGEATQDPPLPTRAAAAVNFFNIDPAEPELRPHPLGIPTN
Description: The affinity of test compounds for the serotonin 5-HT6 receptor is evaluated in the following manner. Cultured Hela cells expressing human cloned 5-HT6 receptors are harvested and centrifuged at low speed (1,000× g) for 10.0 min to remove the culture media. The harvested cells are suspended in half volume of fresh physiological phosphate buffered saline solution and recentrifuged at the same speed. This operation is repeated. The collected cells are then homogenized in ten volumes of 50 mM Tris.HCl (pH 7.4) and 0.5 mM EDTA. The homogenate is centrifuged at 40,000× g for 30.0 min and the precipitate is collected. The obtained pellet is resuspended in 10 volumes of Tris.HCl buffer and recentrifuged at the same speed. The final pellet is suspended in a small volume of Tris.HCl buffer and the tissue protein content is determined in aliquots of 10-25 μl volumes. […]
The bound complex caught on the filter disk is allowed to air dry and the radioactivity is measured in a Packard TopCount® equipped with six photomultiplier detectors, after the addition of 40.0 μl Microscint®-20 scintillant to each shallow well. The unifilter plate is heat-sealed and counted in a PackardTopCount® with a tritium efficiency of 31.0%.
Binding in the presence of varying concentrations of test compound is expressed as a percentage of specific binding in the absence of test compound. […]

As for `O=C(O)Cc1cn(S(=O)(=O)c2c(Cl)nc3sccn23)c2ccccc12` [Example 2, {1-[(6-Chloroimidazo[2,1-b][1,3]thiazol-5-yl)sulfonyl]-1H-indol-3-yl}acetic acid], the inhibitory constant (Ki) is 248 nM. This counts as sub-micromolar.
